Experimental data from patent publication US20090053154A1, “MIXTURES OF ETHYLHEXYL P-METHOXYCINNAMATE AND ETHYLHEXYL SALICYLATE” (SYMRISE GmbH & Co. KG, priority 2005, published 2009).
Like-named read-outs stand apart in the source and are kept apart here.

Legend:
[1] = cited from earlier work
[2] = emulsion containing 5 wt. % of EHMC; cited from earlier work
[3] = Specific extinction E 1%/1 cm of the UV filter; assay type: physicochemical; details: EHS versus EHMC
From the text: 2-Ethylhexyl p-methoxycinnamate (ethylhexyl p-methoxycinnamate, CAS no.: 5466-77-3; USAN: Octinoxate, Neo Heliopan® AV (Symrise trade mark); hereafter abbreviated to EHMC) is a liquid, oil-soluble UV-B filter with a specific extinction E 1%/1 cm at 308 nm of approx. 850 (cf. H&R Contact no. 51, January 1991, pages 3-8). 2-Ethylhexyl p-methoxycinnamate is also frequently abbreviated to octyl methoxycinnamate (OMC) in the literature.
2-Ethylhexyl salicylate (CAS no.: 118-60-5; USAN: Octisalate, Neo Heliopan® OS (Symrise trade mark); hereafter abbreviated to EHS) is likewise a liquid, oil-soluble UV-B filter with a specific extinction E 1%/1 cm at 305 nm of approx. 180 (cf. H&R Contact no. 51, January 1991, pages 3-8). The specific extinction of EHS is lower than that of EHMC by a factor of about 5.
The specific extinction of UV filters is of primary importance as an index for assessing the efficacy in respect of the achievable light protection factor (LPF, hereafter also SPF (sun protection factor)). […] The light protection factor of a (light protection) formulation is a measure of the UV-B protection it can achieve. The absolute SPF values also depend within certain limits on the cosmetic base formulation used.

| specific extinction lower than that of EHMC by a factor [3] | Compound | specific extinction E 1%/1 cm ([1]; at 308 nm) | SPF (in vitro measurement) [2] | specific extinction E 1%/1 cm ([1]; at 305 nm) |
| --- | --- | --- | --- | --- |
| – | CCCCC(CC)COC(=O)C=Cc1ccc(OC)cc1 (stereo not shown) [EHMC, 2-Ethylhexyl p-methoxycinnamate] | approx. 850 | 10.1 | – |
| about 5 | CCCCC(CC)COC(=O)c1ccccc1O (stereo not shown) [EHS, 2-Ethylhexyl salicylate] | – | – | approx. 180 |
